Experimental data as given in patent US10501479B2, “Benzenesulfonyl-asymmetric ureas and medical uses thereof” (HELSINN HEALTHCARE SA, priority 2016, dated 2019).
Several values for one entry are separate records, joined by “and”; a condition that tells them apart may be missing. Identical values can stand only once. Like-named read-outs stand apart in the source and are kept apart here.

How the values were obtained:
[1] = Metabolic stability in human liver microsomes; format: in vitro ADME
Outline: (§1)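 Depletion of test compound in NADPH-fortified liver microsomes (pH 7.4 phosphate buffer, 37 °C) is followed over 90 min. Remaining compound in quenched samples is quantified by LC-MS/MS against the time-zero level.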

[2] = Metabolic stability in mouse liver microsomes; format: in vitro ADME
Outline: as §1

[3] = Plasma protein binding (PPB), human; format: in vitro ADME; settings: read-out: PPB (H)
[4] = molecular target: T1, GHSR-1a (HEK293/GHSR1a cell line) (Homo sapiens, UniProt Q92847); experiment: Ghrelin antagonist potency (IC50) with calcium FLIPR assay, ghrelin 10 nM; format: cell-based
T1 construct: expressed in transfected cells; host or cells: HEK293/GHSR1a cell line
T1 sequence (Q92847 whole entry): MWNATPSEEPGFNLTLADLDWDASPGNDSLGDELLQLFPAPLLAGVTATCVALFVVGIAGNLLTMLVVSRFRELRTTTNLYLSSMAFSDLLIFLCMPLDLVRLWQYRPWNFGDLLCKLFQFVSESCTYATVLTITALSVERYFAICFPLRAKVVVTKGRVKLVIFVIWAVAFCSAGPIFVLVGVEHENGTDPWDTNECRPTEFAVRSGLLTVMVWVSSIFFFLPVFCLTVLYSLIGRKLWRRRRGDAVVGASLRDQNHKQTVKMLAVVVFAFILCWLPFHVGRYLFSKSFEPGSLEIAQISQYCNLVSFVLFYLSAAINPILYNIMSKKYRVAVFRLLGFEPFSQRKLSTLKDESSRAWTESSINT
Outline: (§2)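 Potency values were estimated from dose-response curves of relative fluorescence, with calcium followed for 2 minutes after additions at t=20 sec. Agonism was tested with compound alone. Antagonism was tested with compound plus 10 nM ghrelin and scored as a reduction of the ghrelin signal.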

[5] = Plasma protein binding (PPB), mouse; format: in vitro ADME
[6] = molecular target: T2, recombinant human ghrelin receptor (HEK293/GRLN) (Homo sapiens, UniProt Q92847); experiment: Ghrelin inverse agonist potency (EC50) with IP-1 (IP-One HTRF) assay; format: cell-based; settings: IP-1 assay
T2 construct: expressed in transfected cells
T2 sequence (Q92847 whole entry): as above
Outline: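 HEK293/GRLN cells were seeded 18-22 hours before the test, then exposed to compound in stimulation buffer for 1 hour at 37° C, 5% CO2. IP-1 was detected by IP-One HTRF (IP1-d2 plus Tb-cryptate, 1 hour RT), reading 620 and 665 nm; the inverse agonist EC50 was derived from this.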

[7] = Animal PK study in mouse via i.v., p.o. and s.c. administration; format: in vivo; settings: for Vd / clearance / half-life: plasma; for clearance: read-out: PK CL i.v.
Outline: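 Single i.v. (tail vein), s.c. (neck scruff) or p.o. (gavage) dose to mice or rats; oral vehicle 1–5% DMSO/0.5% methylcellulose, i.v./s.c. vehicle 1–5% DMSO in 20% HP-β-cyclodextrin. Plasma sampled 0.083 (i.v./s.c.) or 0.25 to 24 h, analyzed by LC-MS/MS.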

[8] = Plasma protein binding (PPB), mouse; format: in vitro ADME; remark: listed apart in the source
[9] = Plasma protein binding (PPB), human; format: in vitro ADME; settings: read-out: PPB (H) (converted)
[10] = molecular target: T1, GHSR-1a (HEK293/GHSR1a cell line); experiment: Ghrelin agonist potency (EC50) with calcium FLIPR assay; format: cell-based; settings: HEK293/GHSR1a, read-out: Activity EC50/EMax: EC50 (ghrelin agonist potency)
Outline: as §2

[11] = Metabolic stability in dog liver microsomes; format: in vitro ADME
Experimental: Metabolic Stability Study
The metabolic stability of compounds in human, dog, rat and mouse liver microsomes was performed according the experimental conditions reported below:
• a) Prepare the following 5 stock solutions: • 1. Test compound stock solutions: dilute 10 mM solution of dextromethorphan (Dtr) in DMSO, 10 mM solution of diphenhydramine (DPA) in DMSO, 10 mM solution of omeprazole (Ome) in DMSO, 10 mM solution of verapamil (Ver) in DMSO, and 10 mM of an inverse agonist compound in DMSO to 0.25 mM solution each with acetonitrile/water (70/30). • 2. Buffer: 100 mM potassium phosphate Buffer (PBS) at pH 7.4 • 3. Liver microsomes (20 mg/ml): Thaw in 37° C. water bath quickly • 4. 2000 μL: of NADPH regenerating system (1.3 mM). Place this system on ice before use:
• 5. […] The test compound concentration in the wells, measured by LC-MS/MS, represents the concentration at time=0. • f) To determine the test compound concentration when t≠0, pre-incubate the NADPH regenerating system and the incubation plate containing the remaining 320 μL of incubation mixture (microsomes protein and test compound) for 5 minutes at 37° C. • g) Start the incubation reaction by adding 80 μL NADPH regenerating system to each well containing the remaining 320 μL incubation mixture. • h) After 10 min., 30 min., and 90 min. of incubation at 37° C., transfer 100 μL of the incubation mixture (microsomes protein, test compound, and NADPH) into the wells of a stop plate pre-filled with 300 μL of the cold quench solution. Shake well. • i) Centrifuge the stop plate at 5000×g for 10 minutes. Collect and dilute the supernatant 3 times with distilled water. Sample and analyze the test compound concentration for all the wells by LC-MS/MS. Animal PK Studies via i.v. (intravenous), p.o. (orally) and s.c. (subcutaneous) administrations

[12] = Animal PK study in rat via i.v., p.o. and s.c. administration; format: in vivo; settings: rat, i.p.
[13] = ghrelin antagonist potency, read-out: IC50 (Activity)
[14] = inverse agonist potency, read-out: EC50 (Activity)
[15] = HEK293/GHSR1a, ghrelin 10 nM, read-out: Activity IC50 (ghrelin antagonist potency)
[16] = iv, 5 mg/kg, i.v., read-out: PK t1/2 i.v.
[17] = po, 10 mg/kg, p.o., read-out: PK t1/2 p.o.
[18] = HEK293/GRLN, read-out: Activity EC50 (ghrelin inverse agonist potency)

Structure (SMILES) | Metabolic Stability Study H = human [1] | Metabolic Stability Study M = mouse [2] | PK F [7] [%] | IC50 [4, 15] | fraction unbound [8] | PK CL p.o. ([7]; p.o.) [mL/min/kg] | PK Vd p.o. ([7]; p.o.) [L/kg] | Vd ([7]; iv, 5 mg/kg) [L/kg] | clearance ([7]; iv, 5 mg/kg, i.v.) [mL/min/kg] | half-life [7, 16] [h] | half-life [7, 17] [h] | EC50 [6, 18] | fraction unbound [9] | EC50 [10] [nM] | further results
COc1ccc([C@H](C)NC(=O)Nc2ccc(S(=O)(=O)Nc3ccc4c(c3)CCN(C)C4)cc2)c(Cl)c1Cl [H1017] | 11.5 µL/min/mg | 30.5 µL/min/mg | – | – | – | – | – | – | – | – | – | – | – | – | fraction unbound [3]: 0.001; IC50 [4, 13]: 72 nM; fraction unbound [5]: 0.0003; EC50 [6, 14]: 9.8 nM
Cl.O=C(NCc1cccc(Cl)c1Cl)Nc1ccc(S(=O)(=O)Cc2ccc3c(c2)CNC3)cc1 [H1057, 1-(2,3-dichlorobenzyl)-3-(4-((isoindolin-5-ylmethyl)sulfonyl)phenyl)urea] | 12.6 µL/min/mg | 10.8 µL/min/mg | 1.6 | – | – | – | – | – | – | – | – | – | – | – | fraction unbound [3]: 0.005; IC50 [4, 13]: 19.3 nM; fraction unbound [5]: 0.005; PK CLiv ([7]; i.v.): 26.2 mL/min/kg; PK Vdiv ([7]; i.v.): 2.18 L/kg; PK t1/2iv ([7]; i.v.): 0.96 h; PK CLpo ([7]; p.o.): 1371 mL/min/kg; PK Vdpo ([7]; p.o.): 368.9 L/kg; PK t1/2po ([7]; p.o.): 3.11 h; EC50 [6, 14]: 6.9 nM
CC(NC(=O)Nc1ccc(S(=O)(=O)Cc2ccc3c(c2)CNC3)cc1)c1ccc(F)cc1 (stereo not shown) [H1262, 1-(1-(4-fluorophenyl)ethyl)-3-(4-((isoindolin-5-ylmethyl)sulfonyl)phenyl)urea] | 18.2 µL/min/mg | 11.2 µL/min/mg | 1.13 | 10.6 nM | 0.05 | 1847 | 307 | 1.69 | 21.8 | 0.89 | 1.92 | 7.5 nM | 0.099 | > 30000 | –
C[C@H](NC(=O)Nc1ccc2c(c1)CC(c1ccc3c(c1)CNC3)S2(=O)=O)c1ccccc1 (stereo partly drawn) [H1264, 1-(2-(isoindolin-5-yl)-1,1-dioxido-2,3-dihydrobenzo[b]thiophen-5-yl)-3-((S)-1-phenylethyl)urea] | H < 10 M < 10 R = not reported D = not reported μL/min/mg | H < 10 M < 10 R = not reported D = not reported μL/min/mg | 0.36 | 4.4 nM | 0.185 | – | 627.9 | 4.83 | 48.2 | 1.16 | 0.64 | – | 0.221 | – | –
CC(c1ccccc1)N(C)C(=O)Nc1ccc(S(=O)(=O)Cc2ccc3c(c2)CN(C)C3)cc1 (stereo not shown) [H1381, 1-methyl-3-(4-(((2-methylisoindolin-5-yl)methyl)sulfonyl)phenyl)-1-(1-phenylethyl)urea] | 60 µL/min/mg | 68.1 µL/min/mg | 20.64 | 480 nM and 257 nM | 0.0854 | 295 | 42.87 | 3.1 | 63.8 | – | 1.68 | 22.1 nM and 33.1 nM | 0.0906 | – | Metabolic Stability Study D = dog [11]: 88.7 µL/min/mg
COc1cc(S(=O)(=O)Cc2ccc3c(c2)CN(C)C3)ccc1NC(=O)NC(C)c1ccccc1 (stereo not shown) [H1388, 1-(2-methoxy-4-(((2-methylisoindolin-5-yl)methyl)sulfonyl)phenyl)-3-(1-phenylethyl)urea] | 58.1 µL/min/mg | 42.4 µL/min/mg | 11.3 | 10.2 nM | 0.079 | 675 | 86.8 | 6.3 | 77.7 | 0.93 | 1.49 | 4.6 nM | 0.031 | > 30000 | –
COc1ccc([C@@H](C)NC(=O)Nc2ccc(S(=O)(=O)Cc3ccc4c(c3)CCN(C)C4)cc2)c(Cl)c1Cl [H1417, (R)-1-(1-(2,3-dichloro-4-methoxyphenyl)ethyl)-3-(4-(((2-methyl-1,2,3,4-tetrahydroisoquinolin-6-yl)methyl)sulfonyl)phenyl)urea] | 48.9 µL/min/mg | 53.4 µL/min/mg | 11.80 | 45 nM | 0.0012 | 226.8 | 24.97 | 4.74 | 26.2 | 2.09 | 1.27 | 9.73 nM | 0.0015 | > 30000 | –
COc1cc(S(=O)(=O)Cc2ccc3c(c2)CNC3)ccc1NC(=O)NC(C)c1ccccc1F.O=C(O)C(F)(F)F (stereo not shown) [H1420, 1-(1-(2-fluorophenyl)ethyl)-3-(4-((isoindolin-5-ylmethyl)sulfonyl)-2-methoxyphenyl)urea] | 17.4 µL/min/mg | 50.6 µL/min/mg | – | 22 nM | 0.0461 | – | – | – | – | – | – | 1 nM | 0.028 | > 30000 | –
COc1cc(S(=O)(=O)Cc2ccc3c(c2)CNC3)ccc1NC(=O)NC(C)c1cccc(Cl)c1Cl.Cl (stereo not shown) [H1421, 1-(1-(2,3-dichlorophenyl)ethyl)-3-(4-((isoindolin-5-ylmethyl)sulfonyl)-2-methoxyphenyl)urea] | 13.2 µL/min/mg | 38.8 µL/min/mg | – | 1.8 nM | 0.0034 | – | – | – | – | – | – | 0.4 nM | 0.0037 | > 50000 | half-life ([12]; plasma, ip, read-out: PK t1/2 i.p. (R)): 19 h; PK CL i.p. (R) [12]: 32.7 mL/min/kg; PK Vd i.p. (R) [12]: 54.56 L/kg
COc1cc(S(=O)(=O)Cc2ccc3c(c2)CC(C)NC3)ccc1NC(=O)NC(C)c1ccccc1 (stereo not shown) [H1441, 1-(2-methoxy-4-(((3-methyl-1,2,3,4-tetrahydroisoquinolin-6-yl)methyl)sulfonyl)phenyl)-3-(1-phenylethyl)urea] | 17.3 µL/min/mg | 16.4 µL/min/mg | – | 14.9 nM and 40.4 nM | 0.045 | – | – | – | – | – | – | 4.3 nM and 3.3 nM | 0.0245 | > 30000 | –
